US20220154247A1, “ULTRASENSITIVE METHOD FOR DETECTING CELL DEATH” (priority 2019, published 2022)
“Also recorded” adds a separate entry of the source.

Key:
[1] = test system: MOLM14 cells; test: Annexin V/propidium iodide labeling, flow cytometry, percentage of apoptotic cells; format: cell-based; settings: MOLM14 cells treated 16 h with 0-10 μM etoposide; no plateau with the PCR method
Procedure: The cells are washed with PBS then resuspended in 1× binding buffer at a concentration of 1×10^6 cells/ml. 10 μl of Annexin V Pacific Blue and 10 μl of propidium iodide (Biolegend kit) are added to 200 μl of this cell suspension, which is then incubated for 15 minutes in darkness and at ambient temperature. After centrifugation at 300 g for 5 min, the supernatant is gently aspirated and 500 μl of 1× binding buffer are added.
These cells are then used in flow cytometry for determining the effect of the treatment and the number of cells in apoptosis. These cells are sorted depending on their annexin V and propidium iodide statuses in order to then carry out a PCR.
MOLM14 cells are left untreated (NT) or treated for 16 h with increasing concentrations of etoposide (0-0.62-1.25-2.5-5 or 10 μM).
The cells are labeled using the Pacific Blue™ Annexin V kit (Biolegend) according to the supplier's recommendations and then analyzed by flow cytometry (MACSQuant VYB—Miltenyi Biotec). The percentage of positive apoptotic cells (annexin V) is determined.

[2] = test system: MDA-MB-231 cells; test: DNA fragments in the cytoplasmic fraction detected by capillary electrophoresis (fragment analyzer); format: cell-based; settings: MDA-MB-231 cells treated 24 h with 50 or 100 nM staurosporine, compared to untreated cells
Procedure: MDA-MB-231 cells were inoculated in 6 [MUT] at an amount of 3 million cells per 35 ml of DMEM high glucose medium (10% FCS, P/S). The next day, the MDA-MB-231 cells were treated with 50 nM and 100 nM staurosporine. The medium of the 2 untreated [MUT] was changed. After 24 h of treatment, the MDA-MB-231 cells were lysed with 2 ml of lysis buffer added to the [MUT] for 15 min at ambient temperature, then 2 ml were transferred into a tube and centrifuged at 2000 g for 5 min. The supernatant was then treated with RNaseA (20 μg/ml) and then with Proteinase K (used at 100 ug/ml), and placed at 70° C. for 15 min. The lysis buffer is a mixture of 50 mM 4-(2-hydroxyethyl)-1-piperazineethanesulfonic acid, 5 mM ethylenediaminetetraacetic acid, 150 mM sodium chloride, and 50 μg/ml digitonin. 1/10 volume of sodium acetate (NaAc) (3 M, pH 5.2) was then added. DNA was precipitated with 1 volume of isopropanol. The samples were left at ambient temperature for 15 min and then centrifuged at 20 000 g for 20 min at +4° C. The supernatant was aspirated and the pellet was washed with 75% ethanol. The pellet was dried and then resuspended in 30 μl of TE at pH 8 and analyzed in a fragment analyzer.

## COc1cc([C@@H]2c3cc4c(cc3[C@@H](O[C@@H]3O[C@@H]5CO[C@@H](C)O[C@H]5[C@H](O)[C@H]3O)[C@H]3COC(=O)[C@H]23)OCO4)cc(OC)c1O [etoposide]
[1]
  concentration from which the flow cytometry method (annexin V) reaches a detection plateau: ≥ 2.5 µM

## CN[C@@H]1C[C@H]2O[C@@](C)([C@@H]1OC)n1c3ccccc3c3c4c(c5c6ccccc6n2c5c31)C(=O)NC4 [staurosporine]
[2]
  DNA fragments, a marker of cell death, in the cytoplasmic fraction: detected; also recorded: increase in the quantity of DNA fragments
